Measurements taken from ChEMBL document CHEMBL1201862, “PubChem BioAssay data set” (2004).
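How tested: cells in 96-well plates exposed to compound for 48 hours at five concentrations. GI50: concentration for 50% inhibition of growth.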 Activity calls are given as the source filed them. No stated cut-off is given here; in the data, active = GI50 up to about 1.1 µM and inactive = higher.

Legend:
Experiment in all cases: inhibition of tumour cell growth, NCI panel, 48 h
NCI-H23 = test system: NCI-H23
MOLT-4 = test system: MOLT-4
SNB-19 = test system: SNB-19
SK-MEL-2 = test system: SK-MEL-2
SF-295 = test system: SF-295
OVCAR-8 = test system: OVCAR-8
NCI-H460 = test system: NCI-H460
SNB-75 = test system: SNB-75
KM12 = test system: KM12
HCT-15 = test system: HCT-15
EKVX = test system: EKVX
SK-MEL-5 = test system: SK-MEL-5
COLO 205 = test system: COLO 205
MCF7 = test system: MCF7
HL-60 = test system: HL-60
OVCAR-3 = test system: OVCAR-3
K562 = test system: K562
A498 = test system: A498
Malme-3M = test system: Malme-3M
U-251 = test system: U-251

Cc1c2c(cc3c1[nH]c1ccccc13)C(c1ccc(F)cc1)=NCC2
GI50 (NCI-H23): 1150 nM (inactive) | GI50 (MOLT-4): 1000 nM (active) | GI50 (SNB-19): 1410 nM (inactive) | GI50 (SK-MEL-2): 1210 nM (inactive) | GI50 (SF-295): 869 nM (active) | GI50 (OVCAR-8): 1810 nM (inactive) | GI50 (NCI-H460): 815 nM (active) | GI50 (SNB-75): 1240 nM (inactive) | GI50 (KM12): 869 nM (active) | GI50 (HCT-15): 904 nM | GI50 (EKVX): 2070 nM (inactive) | GI50 (SK-MEL-5): 1720 nM (inactive) | GI50 (COLO 205): 679 nM (active) | GI50 (MCF7): 1090 nM (active) | GI50 (HL-60): 358 nM (active) | GI50 (OVCAR-3): 993 nM (active) | GI50 (K562): 379 nM (active) | GI50 (A498): 1370 nM (inactive) | GI50 (Malme-3M): 1680 nM (inactive) | GI50 (U-251): 1430 nM (inactive)

O=S(=O)(O)c1cc2ccc1/C=C\c1ccc(cc1S(=O)(=O)O)/N=N\c1ccc(c(S(=O)(=O)O)c1)/C=C\c1ccc(cc1S(=O)(=O)O)/N=N\2
GI50 (NCI-H23): > 100000 nM (inactive) | GI50 (MOLT-4): > 100000 nM (inactive) | GI50 (SNB-19): > 100000 nM (inactive) | GI50 (SK-MEL-2): > 100000 nM (inactive) | GI50 (SF-295): > 100000 nM (inactive) | GI50 (OVCAR-8): > 100000 nM (inactive) | GI50 (NCI-H460): > 100000 nM (inactive) | GI50 (SNB-75): > 100000 nM (inactive) | GI50 (KM12): > 100000 nM (inactive) | GI50 (HCT-15): > 100000 nM | GI50 (EKVX): > 100000 nM (inactive) | GI50 (SK-MEL-5): > 100000 nM (inactive) | GI50 (COLO 205): > 100000 nM (inactive) | GI50 (MCF7): > 100000 nM (inactive) | GI50 (HL-60): > 100000 nM (inactive) | GI50 (OVCAR-3): > 100000 nM (inactive) | GI50 (K562): > 100000 nM (inactive) | GI50 (A498): > 100000 nM (inactive) | GI50 (Malme-3M): > 100000 nM (inactive) | GI50 (U-251): > 100000 nM (inactive)
